Test results from the NIST ThermoML archive (doi:10.1021/je060113j).

Assays:
[1] = 101.33 kPa, Liquid; for viscosity: Capillary tube (Ostwald / Ubbelohde) method; for mass density: Pycnometric method; for speed of sound: Sing-around technique in a fixed-path interferometer
[2] = xn = mol fraction of the nth substance listed; conditions: 101 kPa, Liquid; for viscosity: Capillary tube (Ostwald / Ubbelohde) method; for mass density: Pycnometric method; for speed of sound: Sing-around technique in a fixed-path interferometer

CN(C)C=O [dimethylformamide]
[1]
Conditions | mass density [kg/m3] | speed of sound [m/s] | viscosity [mPa·s]
298.15 K | 946.1 | 1465 | 0.8586
308.15 K | 939.9 | – | 0.7763
318.15 K | 931.6 | – | 0.7125

OCCO [1,2-ethanediol] + CN(C)C=O
[2], x1 = 0.5408
Conditions | mass density [kg/m3] | speed of sound [m/s] | viscosity [mPa·s]
298.15 K | 1024.8 | 1584.4 | 3.065
308.15 K | 1016.8 | – | 2.453
318.15 K | 1008.2 | – | 1.96

C1CCOC1 [tetrahydrofuran] + OCCO
[2], x2 = 0.5374
Conditions | mass density [kg/m3] | speed of sound [m/s] | viscosity [mPa·s]
298.15 K | 984.5 | 1436.8 | 2.509
308.15 K | 974.1 | – | 1.866
318.15 K | 964.9 | – | 1.558

O [water]
[1]
Conditions | mass density [kg/m3] | speed of sound [m/s] | viscosity [mPa·s]
298.15 K | – | 1498 | 0.8904
308.15 K | 994.1 | – | 0.7194
318.15 K | 990.3 | – | 0.596

C1COCCO1 [1,4-dioxane]
[1]
Conditions | mass density [kg/m3] | speed of sound [m/s] | viscosity [mPa·s]
298.15 K | 1027.3 | 1344 | 1.224
308.15 K | 1016 | – | 0.9268
318.15 K | 1005.6 | – | 0.7991

C1CCOC1 [tetrahydrofuran]
[1]
Conditions | mass density [kg/m3] | speed of sound [m/s] | viscosity [mPa·s]
298.15 K | 880.7 | 1279 | 0.463
308.15 K | 871.2 | – | 0.4277
318.15 K | 861.4 | – | 0.3902

C[S+](C)[O-] [dimethyl sulfoxide]
[1]
Conditions | mass density [kg/m3] | speed of sound [m/s] | viscosity [mPa·s]
298.15 K | 1095.4 | 1493 | 2.042
308.15 K | 1085.9 | – | 1.568
318.15 K | 1076.7 | – | 1.485

OCCO [1,2-ethanediol]
[1]
Conditions | mass density [kg/m3] | speed of sound [m/s] | viscosity [mPa·s]
298.15 K | 1106.3 | 1666 | 16.39
308.15 K | – | – | 10.77
318.15 K | – | – | 7.703

OCCO [1,2-ethanediol] + C[S+](C)[O-]
[2], x1 = 0.5573
Conditions | mass density [kg/m3] | speed of sound [m/s] | viscosity [mPa·s]
298.15 K | 1108.5 | 1617.3 | 5.195
308.15 K | 1098.9 | – | 3.901
318.15 K | 1089.6 | – | 3.108

C1COCCO1 [1,4-dioxane] + OCCO
[2], x2 = 0.5867
Conditions | mass density [kg/m3] | speed of sound [m/s] | viscosity [mPa·s]
298.15 K | 1070.9 | 1519.2 | 4.386
308.15 K | 1060.4 | – | 3.36
318.15 K | 1050.9 | – | 2.661
